Read-outs that look alike come from different tables or passages of the source.
What was measured:
Experiment in all cases: human MTase selectivity panel
Assay type in all cases: biochemical
[1] = target: PRMT1 (Homo sapiens, UniProt Q99873)
[2] = target: SUV39H2 (Homo sapiens, UniProt Q9H5I1)
[3] = target: T1, SETD7 (Homo sapiens, UniProt Q8WTS6)
T1 sequence (Q8WTS6 1-366): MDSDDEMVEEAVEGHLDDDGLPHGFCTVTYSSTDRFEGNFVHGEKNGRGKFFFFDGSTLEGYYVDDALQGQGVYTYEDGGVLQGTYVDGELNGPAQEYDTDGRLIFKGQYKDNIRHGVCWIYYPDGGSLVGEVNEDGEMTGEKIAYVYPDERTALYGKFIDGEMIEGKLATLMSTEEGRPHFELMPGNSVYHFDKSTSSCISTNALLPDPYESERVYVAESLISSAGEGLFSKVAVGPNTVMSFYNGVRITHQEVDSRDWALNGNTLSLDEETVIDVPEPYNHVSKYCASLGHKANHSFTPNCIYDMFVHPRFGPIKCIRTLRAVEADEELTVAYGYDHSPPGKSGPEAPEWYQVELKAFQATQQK

[4] = target: ASH1L (Homo sapiens, UniProt Q9NR48)
[5] = target: T2, SETD8 (Homo sapiens, UniProt Q9NQR1)
T2 sequence (Q9NQR1 1-393): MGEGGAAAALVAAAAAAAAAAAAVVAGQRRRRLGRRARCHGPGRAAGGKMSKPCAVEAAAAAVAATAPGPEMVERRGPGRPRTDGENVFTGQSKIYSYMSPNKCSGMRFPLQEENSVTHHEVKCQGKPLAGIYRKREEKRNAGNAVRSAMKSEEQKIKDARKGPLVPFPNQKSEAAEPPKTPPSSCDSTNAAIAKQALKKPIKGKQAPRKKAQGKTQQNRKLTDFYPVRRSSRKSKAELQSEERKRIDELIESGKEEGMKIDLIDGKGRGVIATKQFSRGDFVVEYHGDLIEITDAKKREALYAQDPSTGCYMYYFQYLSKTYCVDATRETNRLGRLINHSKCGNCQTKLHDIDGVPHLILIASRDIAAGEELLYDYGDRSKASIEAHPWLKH

[6] = target: T3, GLP (Homo sapiens, UniProt Q9H9B1)
T3 sequence (Q9H9B1 1-1298): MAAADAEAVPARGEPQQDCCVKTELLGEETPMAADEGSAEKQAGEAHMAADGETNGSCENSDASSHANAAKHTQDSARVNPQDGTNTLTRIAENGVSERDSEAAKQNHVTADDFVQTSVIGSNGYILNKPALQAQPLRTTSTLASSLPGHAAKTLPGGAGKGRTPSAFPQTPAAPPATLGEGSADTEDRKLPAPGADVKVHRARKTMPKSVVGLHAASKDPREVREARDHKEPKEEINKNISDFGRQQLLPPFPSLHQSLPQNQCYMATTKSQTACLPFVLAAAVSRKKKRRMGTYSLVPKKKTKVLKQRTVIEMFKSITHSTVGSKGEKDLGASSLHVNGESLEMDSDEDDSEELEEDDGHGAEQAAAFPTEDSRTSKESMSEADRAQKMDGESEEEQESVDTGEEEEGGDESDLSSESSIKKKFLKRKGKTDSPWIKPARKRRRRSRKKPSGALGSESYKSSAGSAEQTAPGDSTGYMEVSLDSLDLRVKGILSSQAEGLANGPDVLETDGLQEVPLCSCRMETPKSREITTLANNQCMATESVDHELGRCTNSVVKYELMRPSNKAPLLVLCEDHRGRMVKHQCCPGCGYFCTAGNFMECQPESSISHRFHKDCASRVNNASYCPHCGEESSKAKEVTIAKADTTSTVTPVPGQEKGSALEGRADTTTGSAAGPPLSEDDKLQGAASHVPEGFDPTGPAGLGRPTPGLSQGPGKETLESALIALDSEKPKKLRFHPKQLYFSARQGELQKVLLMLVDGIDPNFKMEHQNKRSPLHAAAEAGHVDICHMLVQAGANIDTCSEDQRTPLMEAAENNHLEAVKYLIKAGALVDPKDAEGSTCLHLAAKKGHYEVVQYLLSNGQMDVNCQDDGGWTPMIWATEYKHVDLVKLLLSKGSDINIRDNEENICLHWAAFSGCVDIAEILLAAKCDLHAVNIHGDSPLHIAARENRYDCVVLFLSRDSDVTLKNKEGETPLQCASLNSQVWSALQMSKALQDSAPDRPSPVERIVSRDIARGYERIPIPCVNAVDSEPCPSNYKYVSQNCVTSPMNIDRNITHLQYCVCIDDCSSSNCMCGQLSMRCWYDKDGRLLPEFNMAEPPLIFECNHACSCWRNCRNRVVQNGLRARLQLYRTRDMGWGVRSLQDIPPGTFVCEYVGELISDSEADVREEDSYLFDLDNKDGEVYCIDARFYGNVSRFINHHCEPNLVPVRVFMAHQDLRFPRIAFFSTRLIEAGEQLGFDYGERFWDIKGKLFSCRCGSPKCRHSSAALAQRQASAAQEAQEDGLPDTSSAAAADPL

[7] = target: SMYD2 (Homo sapiens, UniProt Q9NRG4)
[8] = target: EZH2 (Homo sapiens, UniProt Q15910)
[9] = target: SUV420H2 (Homo sapiens, UniProt Q86Y97)
[10] = average ± SD, read-out: Activity (%) at 10 µM Average
[11] = read-out: Activity (%) at 10 µM Replicate 1
[12] = read-out: Activity (%) at 10 µM Replicate 2
[13] = read-out: Activity (%) at 10 µM Replicate 3

Sequence of PRMT1 (Q99873 whole entry): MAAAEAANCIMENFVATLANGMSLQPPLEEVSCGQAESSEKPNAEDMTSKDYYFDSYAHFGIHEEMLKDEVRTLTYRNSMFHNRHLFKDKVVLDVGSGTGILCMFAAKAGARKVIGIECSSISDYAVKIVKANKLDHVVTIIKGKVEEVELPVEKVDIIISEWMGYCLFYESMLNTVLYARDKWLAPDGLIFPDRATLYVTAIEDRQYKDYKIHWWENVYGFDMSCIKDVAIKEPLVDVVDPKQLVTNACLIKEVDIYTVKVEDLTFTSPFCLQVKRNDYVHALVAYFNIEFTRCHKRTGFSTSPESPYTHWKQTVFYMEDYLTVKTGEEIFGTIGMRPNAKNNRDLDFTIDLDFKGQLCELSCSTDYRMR
Sequence of EZH2 (Q15910 whole entry): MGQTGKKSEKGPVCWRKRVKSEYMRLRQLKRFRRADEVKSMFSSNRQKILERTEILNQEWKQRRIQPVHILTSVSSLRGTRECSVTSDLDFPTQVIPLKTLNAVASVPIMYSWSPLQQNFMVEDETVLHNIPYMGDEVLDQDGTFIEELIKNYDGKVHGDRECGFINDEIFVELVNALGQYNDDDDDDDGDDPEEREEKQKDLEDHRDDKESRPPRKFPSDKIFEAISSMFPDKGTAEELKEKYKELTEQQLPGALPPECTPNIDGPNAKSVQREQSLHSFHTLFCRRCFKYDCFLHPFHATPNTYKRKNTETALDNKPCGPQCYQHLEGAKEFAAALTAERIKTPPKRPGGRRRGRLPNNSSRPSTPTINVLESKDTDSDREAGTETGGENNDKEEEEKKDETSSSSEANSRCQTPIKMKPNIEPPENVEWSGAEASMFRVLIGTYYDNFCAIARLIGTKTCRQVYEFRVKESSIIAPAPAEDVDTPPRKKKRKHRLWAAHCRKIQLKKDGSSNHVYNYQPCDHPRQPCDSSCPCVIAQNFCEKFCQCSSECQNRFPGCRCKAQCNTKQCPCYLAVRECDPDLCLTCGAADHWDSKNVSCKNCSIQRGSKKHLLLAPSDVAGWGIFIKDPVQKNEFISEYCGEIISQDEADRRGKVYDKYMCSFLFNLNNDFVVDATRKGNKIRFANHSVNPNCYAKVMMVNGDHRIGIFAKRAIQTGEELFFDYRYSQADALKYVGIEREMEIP
Sequence of EZH2 (O75530 whole entry partner): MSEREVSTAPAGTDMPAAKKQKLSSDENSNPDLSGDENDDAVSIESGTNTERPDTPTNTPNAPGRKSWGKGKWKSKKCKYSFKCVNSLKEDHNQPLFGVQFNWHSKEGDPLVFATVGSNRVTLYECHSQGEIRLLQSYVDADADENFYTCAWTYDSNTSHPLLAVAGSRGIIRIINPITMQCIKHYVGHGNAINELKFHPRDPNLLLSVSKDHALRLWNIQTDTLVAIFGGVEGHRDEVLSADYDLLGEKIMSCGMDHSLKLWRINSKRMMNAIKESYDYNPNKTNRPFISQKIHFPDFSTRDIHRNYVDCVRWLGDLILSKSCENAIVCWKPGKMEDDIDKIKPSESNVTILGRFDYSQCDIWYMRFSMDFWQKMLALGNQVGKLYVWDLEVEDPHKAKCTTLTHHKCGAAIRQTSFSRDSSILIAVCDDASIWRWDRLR
Sequence of EZH2 (Q15022 whole entry partner): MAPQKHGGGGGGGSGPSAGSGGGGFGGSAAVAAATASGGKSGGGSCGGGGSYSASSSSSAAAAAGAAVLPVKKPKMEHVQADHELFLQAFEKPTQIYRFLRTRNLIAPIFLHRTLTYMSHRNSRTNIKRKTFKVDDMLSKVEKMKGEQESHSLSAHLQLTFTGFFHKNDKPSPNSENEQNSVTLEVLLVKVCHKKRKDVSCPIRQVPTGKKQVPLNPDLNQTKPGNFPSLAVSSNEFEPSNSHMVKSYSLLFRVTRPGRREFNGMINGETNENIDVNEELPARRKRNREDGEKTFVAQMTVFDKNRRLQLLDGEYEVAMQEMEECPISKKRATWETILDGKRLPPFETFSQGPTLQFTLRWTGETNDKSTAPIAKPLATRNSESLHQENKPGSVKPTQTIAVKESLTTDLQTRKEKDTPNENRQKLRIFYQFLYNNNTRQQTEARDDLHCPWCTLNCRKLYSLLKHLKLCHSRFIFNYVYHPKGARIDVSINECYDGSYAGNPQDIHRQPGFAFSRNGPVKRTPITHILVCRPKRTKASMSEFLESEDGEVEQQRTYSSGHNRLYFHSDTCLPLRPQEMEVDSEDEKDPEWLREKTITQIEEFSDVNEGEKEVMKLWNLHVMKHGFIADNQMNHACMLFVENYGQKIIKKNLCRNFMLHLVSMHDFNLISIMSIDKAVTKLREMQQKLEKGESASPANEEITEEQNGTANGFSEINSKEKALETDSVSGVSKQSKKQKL
Sequence of SUV420H2 (Q86Y97 whole entry): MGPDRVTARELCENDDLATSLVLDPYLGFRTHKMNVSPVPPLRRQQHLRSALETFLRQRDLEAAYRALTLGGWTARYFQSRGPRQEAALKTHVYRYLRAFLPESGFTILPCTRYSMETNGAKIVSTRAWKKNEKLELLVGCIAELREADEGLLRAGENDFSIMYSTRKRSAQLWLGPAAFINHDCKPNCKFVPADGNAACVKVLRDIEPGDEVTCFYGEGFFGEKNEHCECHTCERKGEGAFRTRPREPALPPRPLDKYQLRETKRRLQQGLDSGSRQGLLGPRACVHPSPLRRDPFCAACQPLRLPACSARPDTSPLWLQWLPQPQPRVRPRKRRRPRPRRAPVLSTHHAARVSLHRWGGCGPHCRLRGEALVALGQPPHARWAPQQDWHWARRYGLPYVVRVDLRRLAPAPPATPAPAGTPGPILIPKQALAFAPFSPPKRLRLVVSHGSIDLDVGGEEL
Sequence of SUV39H2 (Q9H5I1 whole entry): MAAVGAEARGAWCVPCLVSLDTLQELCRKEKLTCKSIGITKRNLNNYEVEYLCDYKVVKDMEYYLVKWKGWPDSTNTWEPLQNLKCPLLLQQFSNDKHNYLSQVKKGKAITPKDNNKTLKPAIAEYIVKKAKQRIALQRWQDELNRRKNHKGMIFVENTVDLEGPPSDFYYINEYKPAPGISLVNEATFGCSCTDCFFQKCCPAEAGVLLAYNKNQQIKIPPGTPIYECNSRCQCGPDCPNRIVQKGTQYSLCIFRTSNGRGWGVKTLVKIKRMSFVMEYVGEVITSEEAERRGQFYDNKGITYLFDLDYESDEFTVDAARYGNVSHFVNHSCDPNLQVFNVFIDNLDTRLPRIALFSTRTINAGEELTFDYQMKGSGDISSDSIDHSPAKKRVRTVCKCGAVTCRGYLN
Sequence of SMYD2 (Q9NRG4 whole entry): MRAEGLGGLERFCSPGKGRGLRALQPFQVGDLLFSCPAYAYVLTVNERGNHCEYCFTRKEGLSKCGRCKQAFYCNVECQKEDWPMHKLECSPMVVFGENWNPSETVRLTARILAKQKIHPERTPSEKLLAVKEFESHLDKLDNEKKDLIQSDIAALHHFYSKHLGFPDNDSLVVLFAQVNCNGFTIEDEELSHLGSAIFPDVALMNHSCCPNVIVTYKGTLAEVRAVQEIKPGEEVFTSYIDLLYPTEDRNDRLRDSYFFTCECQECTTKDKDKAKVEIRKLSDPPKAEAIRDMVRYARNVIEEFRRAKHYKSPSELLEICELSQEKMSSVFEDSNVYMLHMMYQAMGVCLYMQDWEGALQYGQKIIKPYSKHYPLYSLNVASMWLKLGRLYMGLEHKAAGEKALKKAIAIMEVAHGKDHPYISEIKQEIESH

Nc1ncnc2c1ncn2[C@@H]1O[C@H](CSCc2ccc(Cl)cc2)[C@@H](O)[C@H]1O [NSC620333]
activity at 10 µM [1, 10]: 91 ± 6% | activity at 10 µM [1, 11]: 97% | activity at 10 µM [1, 12]: 94% | activity at 10 µM [1, 13]: 84% | activity at 10 µM [2, 10]: 103 ± 7% | activity at 10 µM [2, 11]: 108% | activity at 10 µM [2, 12]: 96% | activity at 10 µM [2, 13]: 106% | activity at 10 µM [3, 10]: 87 ± 1% | activity at 10 µM [3, 11]: 85% | activity at 10 µM [3, 12]: 88% | activity at 10 µM [3, 13]: 87% | activity at 10 µM [4, 10]: 105 ± 8% | activity at 10 µM [4, 11]: 113% | activity at 10 µM [4, 12]: 97% | activity at 10 µM [4, 13]: 104% | activity at 10 µM [5, 10]: 85 ± 6% | activity at 10 µM [5, 11]: 79% | activity at 10 µM [5, 12]: 90% | activity at 10 µM [5, 13]: 86% | activity at 10 µM [6, 10]: 100 ± 5% | activity at 10 µM [6, 11]: 95% | activity at 10 µM [6, 12]: 105% | activity at 10 µM [6, 13]: 101% | activity at 10 µM [7, 10]: 105 ± 8% | activity at 10 µM [7, 11]: 104% | activity at 10 µM [7, 12]: 114% | activity at 10 µM [7, 13]: 99% | activity at 10 µM [8, 10]: 96 ± 5% | activity at 10 µM [8, 11]: 101% | activity at 10 µM [8, 12]: 90% | activity at 10 µM [8, 13]: 98% | activity at 10 µM [9, 10]: 96 ± 9% | activity at 10 µM [9, 11]: 96% | activity at 10 µM [9, 12]: 104% | activity at 10 µM [9, 13]: 86%
